# Measured values: PubChem BioAssay AID463199 (Broad Institute, 2010)
# Active and inactive are the calls of the source.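 Rule for the calls: active = AC50, the dose giving half-maximal effect, exceeds a fixed cutoff for a compound that rescues yeast growth under heat; inactive = the rest, inconclusive results apart.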
# System: S. cerevisiae Burl-1 ts mutant growth, BacTiter-Glo, 38.5C 24 h
# Assay: restored growth of temperature-sensitive Burl-1 yeast – whole organism, S. cerevisiae, Burl-1 ts mutant, luminescence, counter-screen for SUMOylation pathway inhibitor project, dose response (AID 463199)
row,SMILES,AC50
1,Cc1cc(F)ccc1S(=O)(=O)Nc1ccccc1C(=O)Nc1ccc2[nH]c(=O)[nH]c2c1,> 42 µM (inactive)
2,COc1ccccc1NC(=O)c1ccc(-n2ccnc2)c([N+](=O)[O-])c1,> 42 µM (inactive)
3,O=C(CCCCCn1c(=O)[nH]c2ccsc2c1=O)NCc1ccc(F)cc1,> 42 µM (inactive)
4,Cc1nc2nc[nH]n2c(=O)c1NS(=O)(=O)c1ccc([N+](=O)[O-])cc1,> 42 µM (inactive)
5,CCCNCC(O)COc1ccccc1C(=O)CCc1ccccc1 (stereo not given),> 42 µM (inactive)
6,O=C(Cc1cccs1)N1CCCC(c2nc3c(nnn3Cc3ccc(F)cc3)c(=O)[nH]2)C1 (stereo not given),> 42 µM (inactive)
7,CC(C)(C)c1ccc(C(=O)NCCC(=O)N2CCN(c3ncccn3)CC2)cc1,> 42 µM (inactive)
8,OCCN1CN=C(Nc2nc3ccccc3o2)NC1,> 42 µM (inactive)
9,COc1nc(-c2ccccc2)ccc1-c1noc(-c2ccccc2)n1,> 42 µM (inactive)
10,CCOc1ccc(N(C(=O)C2CCCO2)C2C=CS(=O)(=O)C2)cc1 (stereo not given),> 42 µM (inactive)
11,Cc1cc(C)nc(-n2nc(C)cc2NC(=O)CNCc2ccccc2)n1,> 42 µM (inactive)
12,CC(=O)c1c(Nc2cccc(F)c2)oc(C)cc1=O,> 42 µM (inactive)
13,O=C(N=C1SC2CS(=O)(=O)CC2N1c1ccc(F)c(Cl)c1)C1CC1 (stereo not given),> 42 µM (inactive)
14,COC(=O)c1ccc(CSc2nnnn2-c2ccccc2)o1,> 42 µM (inactive)
15,O=S(=O)(Nc1cccc2cn[nH]c12)c1ccc(F)cc1,> 42 µM (inactive)
16,O=C1CCCN1CCC1CCN(C2CC(=O)N(c3ccc(Cl)cc3)C2=O)CC1 (stereo not given),> 42 µM (inactive)
17,COc1ccccc1-c1sc2ccccc2c1-c1ccc2c(c1)OCO2,> 42 µM (inactive)
18,Cn1c(CN2CCOCC2)nnc1SCC(N)=O,> 42 µM (inactive)
19,COc1ccc(C2=NOC(Cn3nc(C(=O)NCc4cccs4)cc3-c3ccccc3)C2)cc1 (stereo not given),> 42 µM (inactive)
20,Cc1sc2ncnc(N3CCC(C(=O)NNC(=O)COc4ccccc4F)CC3)c2c1C,> 42 µM (inactive)

row,SMILES,AC50
1,Cc1nc2c(-c3ccc(F)cc3)cnn2c2c1CCC2,> 42 µM (inactive)
2,CCOc1cc(/C=C2\NC(=O)NC2=O)ccc1OC(C)C(=O)O (stereo not given),> 42 µM (inactive)
3,Cc1cccc(N=C2C(=O)Nc3c(Cl)cccc32)c1,> 42 µM (inactive)
4,N#Cc1cc2c(nc1SCc1cccnc1)CCC2,> 42 µM (inactive)
5,O=S(=O)(NCc1ccco1)c1ccc2ccccc2c1,> 42 µM (inactive)
6,O=c1c2ccccc2nc(SCc2ccc([N+](=O)[O-])cc2)n1CCCO,> 42 µM (inactive)
7,CC1(C)Oc2ccc3ccc(=O)oc3c2/C(=C/Nc2ccc(O)cc2)C1=O,> 42 µM (inactive)
8,Cc1cc([N+](=O)[O-])nn1CC(=O)NNC(=S)Nc1ccc([N+](=O)[O-])cc1,> 21 µM (inactive)
9,NC(=O)c1ccccc1NC(=O)c1ccc2c(c1)OCO2,> 42 µM (inactive)
10,CCN(CC1COc2ccccc2O1)C(=S)NCCCN(C)C (stereo not given),> 42 µM (inactive)
11,CCC1CCCCN1C(=O)CSc1nnc(CNC(=O)c2ccco2)o1 (stereo not given),> 42 µM (inactive)
12,Cc1cccc2nc(COc3ccc4ccccc4c3Br)cn12,> 42 µM (inactive)
13,NC(=S)N/N=C/c1cccc(O)c1O,> 42 µM (inactive)
14,COC(=O)C1=C(C)N(Cc2ccccc2)C(=S)N[C@H]1c1cccc(F)c1,> 42 µM (inactive)
15,COc1ccc(NC(=O)C2CCN(c3cc(C)nc(-c4ccccc4)n3)CC2)cc1,> 42 µM (inactive)
16,Cc1c(NP(=O)(c2ccc(Br)cc2)c2ccc(Br)cc2)c(=O)n(-c2ccccc2)n1C,> 42 µM (inactive)
17,CC1=C(C(=O)Nc2ccccc2)C(c2ccccc2[N+](=O)[O-])NC(=O)N1 (stereo not given),> 42 µM (inactive)
18,CS(=O)(=O)N1CCCC(C(=O)NCc2ccco2)C1 (stereo not given),> 42 µM (inactive)
19,Nc1nnc(CC(=O)N2CCCCC2)s1,> 42 µM (inactive)
20,Cc1cc(N2CCN(C)CC2)nc2ccc(NC(=S)N3CCC4(CC3)OCCO4)cc12,> 42 µM (inactive)
